Source: patent publication US8937096B2, “Use of benzo-fused heterocyle sulfamide derivatives for the treatment of mania and bipolar disorder” (priority 2005, dated 2015)

Experiments:
Wistar rats = assay: Chronic Mild Stress Model (Chronic); format: in vivo, rat
Excerpt: In the chronic mild stress (CMS) model rats subjected to a variety of mild stressors for a prolonged period of time show, among other behavioral, biochemical and physiological impairments, a substantial decrease in their responsiveness to rewarding stimuli. This deficit is usually monitored by a decrease in the consumption of the 1% sucrose solution, but can also be seen in other tests, such as place preference conditioning or intracranial self-stimulation. Since the subsensitivity to reward appears to reflect anhedonia (inability to experience pleasure), which is a core symptom of major depressive disorders, the CMS procedure may serve as a suitable research tool in studies into the mechanisms of antidepressant action.
Male Wistar rats were brought into the laboratory two months before the start of the experiment. Except as described below, the animals were singly housed with food and water freely available, and were maintained on a 12-h light/dark and in a constant temperature (22±2° C.) and humidity (50±5%) conditions.
The animals were first trained to consume a 1% sucrose solution; training consisted of eight 1 h baseline tests in which sucrose was presented, in the home cage, following 14 h food and water deprivation; the sucrose intake was measured by weighing pre-weighed bottles containing the sucrose solution, at the end of the test. Subsequently, sucrose consumption was monitored, under similar conditions, at weekly intervals throughout the whole experiment.
On the basis of their sucrose intakes in the final baseline test, the animals were divided into two matched groups. One group of animals was subjected to the chronic mild stress procedure for a period of 7 consecutive weeks. […]
All results obtained in this study were analyzed by multiple analyses of variance with three between-subjects factors (stress/control, drug treatments and successive sucrose tests). […]

[1] = system: stressed and non-stressed animals; assay: Resident/Intruder Assay (Chronic Social Stress Assay); format: in vivo; parameters: Locomotor Mean ± SD / Rearing Mean ± SD / Sniffing Down Mean ± SD / Sniffing Up Mean ± SD: unit not given here
Excerpt: The behavioral resident/intruder assay is used to screen compounds for anti-depressant-like activity.

[2] = non-stressed, 60 mg/kg p.o., week 1
[3] = non-stressed, 60 mg/kg p.o., week 5
[4] = non-stressed, 120 mg/kg p.o., week 1
[5] = non-stressed, 120 mg/kg p.o., week 5
[6] = stressed, 60 mg/kg p.o., week 1
[7] = stressed, 60 mg/kg p.o., week 5
[8] = stressed, 120 mg/kg p.o., week 1
[9] = stressed, 120 mg/kg p.o., week 5
[10] = non-stressed, 10 mg/kg p.o., week 1
[11] = non-stressed, 10 mg/kg p.o., week 5
[12] = stressed, 10 mg/kg p.o., week 1
[13] = stressed, 10 mg/kg p.o., week 5

Question: Which “activity in the CMS model of depression” value (Wistar rats; 12, 30 or 60 mg/kg i.p.) does the source give for NS(=O)(=O)NC[C@H]1COc2cc(Cl)ccc2O1 [Compound #8, (2S)-(−)-N-(6-Chloro-2,3-dihydro-benzo[1,4]dioxin-2-ylmethyl)-sulfamide] here?
Answer: Its value is “inactive in the CMS model of depression”.

Question: And the “activity in the resident/intruder assay” value ([1]; 60 and 120 mg/kg p.o.)?
Answer: The value was “active in the resident/intruder assay”.

Question: What about the “Forced Swim Test: Immobility during 5 min: Week 5 Mean ± SD” value (shortened to “Forced Swim Test … Week 5 Mean ± SD”) ([1]; non-stressed, 60 mg/kg p.o.) of the same compound?
Answer: Its value is 164.3 ± 25.3.

Question: What about the “Sucrose Intake Mean ± SD Week 3” value ([1]; non-stressed, 60 mg/kg p.o.) of the same compound?
Answer: Its value is 90.9 ± 3.5.

Question: And the “Sucrose Intake Mean ± SD Week 4” value ([1]; non-stressed, 60 mg/kg p.o.)?
Answer: Its value is 92.3 ± 1.4.

Question: What about the “Sucrose Intake Mean ± SD Week 5” value ([1]; non-stressed, 60 mg/kg p.o.) of the same compound?
Answer: The value was 88.9 ± 7.4.

Question: And the “Locomotor Mean ± SD” value [1, 2]?
Answer: The value was 8288.6 ± 2117.5.

Question: What about the “Rearing Mean ± SD” value [1, 2] of the same compound?
Answer: Its value is 49.6 ± 8.7.

Question: And the “Sniffing Down Mean ± SD” value [1, 2]?
Answer: Its value is 20.9 ± 3.3.

Question: And the “Sniffing Up Mean ± SD” value [1, 2]?
Answer: The value was 44.1 ± 9.4.

Question: What about the “Locomotor Mean ± SD” value [1, 3] of the same compound?
Answer: The value was 7922.9 ± 1476.

Question: And the “Rearing Mean ± SD” value [1, 3]?
Answer: The value was 37.4 ± 11.5.

Question: And the “Sniffing Down Mean ± SD” value [1, 3]?
Answer: Its value is 23.5 ± 6.4.

Question: What about the “Sniffing Up Mean ± SD” value [1, 3] of the same compound?
Answer: The value was 33.4 ± 11.2.

Question: What about the “Forced Swim Test … Week 5 Mean ± SD” value ([1]; non-stressed, 120 mg/kg p.o.) of the same compound?
Answer: The value was 136.7 ± 34.9.

Question: And the “Sucrose Intake Mean ± SD Week 3” value ([1]; non-stressed, 120 mg/kg p.o.)?
Answer: Its value is 83.6 ± 22.1.

Question: What about the “Sucrose Intake Mean ± SD Week 4” value ([1]; non-stressed, 120 mg/kg p.o.) of the same compound?
Answer: Its value is 91.3 ± 4.6.

Question: And the “Sucrose Intake Mean ± SD Week 5” value ([1]; non-stressed, 120 mg/kg p.o.)?
Answer: The value was 89.3 ± 5.1.

Question: And the “Locomotor Mean ± SD” value [1, 4]?
Answer: Its value is 8056.6 ± 867.2.

Question: What about the “Rearing Mean ± SD” value [1, 4] of the same compound?
Answer: Its value is 42 ± 10.6.

Question: And the “Sniffing Down Mean ± SD” value [1, 4]?
Answer: Its value is 22.8 ± 3.7.

Question: And the “Sniffing Up Mean ± SD” value [1, 4]?
Answer: Its value is 37.6 ± 8.4.

Question: What about the “Locomotor Mean ± SD” value [1, 5] of the same compound?
Answer: Its value is 8648.3 ± 1060.9.

Question: What about the “Rearing Mean ± SD” value [1, 5] of the same compound?
Answer: Its value is 36.5 ± 6.3.

Question: What about the “Sniffing Down Mean ± SD” value [1, 5] of the same compound?
Answer: Its value is 25.5 ± 4.1.

Question: And the “Sniffing Up Mean ± SD” value [1, 5]?
Answer: Its value is 33.5 ± 5.9.

Question: What about the “Forced Swim Test … Week 5 Mean ± SD” value ([1]; stressed, 60 mg/kg p.o.) of the same compound?
Answer: Its value is 175.1 ± 29.5.

Question: And the “Sucrose Intake Mean ± SD Week 3” value ([1]; stressed, 60 mg/kg p.o.)?
Answer: The value was 92.1 ± 3.2.

Question: And the “Sucrose Intake Mean ± SD Week 4” value ([1]; stressed, 60 mg/kg p.o.)?
Answer: The value was 89.5 ± 6.9.

Question: And the “Sucrose Intake Mean ± SD Week 5” value ([1]; stressed, 60 mg/kg p.o.)?
Answer: The value was 92.4 ± 4.5.

Question: What about the “Locomotor Mean ± SD” value [1, 6] of the same compound?
Answer: The value was 5858.5 ± 708.2.

Question: What about the “Rearing Mean ± SD” value [1, 6] of the same compound?
Answer: The value was 26.5 ± 6.1.

Question: What about the “Sniffing Down Mean ± SD” value [1, 6] of the same compound?
Answer: The value was 13 ± 3.3.

Question: What about the “Sniffing Up Mean ± SD” value [1, 6] of the same compound?
Answer: Its value is 25 ± 7.3.

Question: What about the “Locomotor Mean ± SD” value [1, 7] of the same compound?
Answer: Its value is 7080.9 ± 1238.7.

Question: What about the “Rearing Mean ± SD” value [1, 7] of the same compound?
Answer: The value was 32.8 ± 10.3.

Question: And the “Sniffing Down Mean ± SD” value [1, 7]?
Answer: The value was 24.8 ± 5.7.

Question: What about the “Sniffing Up Mean ± SD” value [1, 7] of the same compound?
Answer: The value was 30.6 ± 11.1.

Question: And the “Forced Swim Test … Week 5 Mean ± SD” value ([1]; stressed, 120 mg/kg p.o.)?
Answer: Its value is 128.3 ± 37.4.

Question: And the “Sucrose Intake Mean ± SD Week 3” value ([1]; stressed, 120 mg/kg p.o.)?
Answer: Its value is 76.1 ± 20.8.

Question: What about the “Sucrose Intake Mean ± SD Week 4” value ([1]; stressed, 120 mg/kg p.o.) of the same compound?
Answer: The value was 75.5 ± 20.6.

Question: What about the “Sucrose Intake Mean ± SD Week 5” value ([1]; stressed, 120 mg/kg p.o.) of the same compound?
Answer: Its value is 87.4 ± 7.9.

Question: And the “Locomotor Mean ± SD” value [1, 8]?
Answer: The value was 6168.3 ± 1132.1.

Question: And the “Rearing Mean ± SD” value [1, 8]?
Answer: Its value is 29.3 ± 7.

Question: What about the “Sniffing Down Mean ± SD” value [1, 8] of the same compound?
Answer: Its value is 13 ± 3.6.

Question: What about the “Sniffing Up Mean ± SD” value [1, 8] of the same compound?
Answer: Its value is 27.5 ± 6.1.

Question: What about the “Locomotor Mean ± SD” value [1, 9] of the same compound?
Answer: The value was 6444 ± 1010.3.

Question: And the “Rearing Mean ± SD” value [1, 9]?
Answer: Its value is 30.1 ± 6.4.

Question: And the “Sniffing Down Mean ± SD” value [1, 9]?
Answer: Its value is 22.5 ± 4.1.

Question: And the “Sniffing Up Mean ± SD” value [1, 9]?
Answer: The value was 30.4 ± 7.5.

Question: What does the source list for COc1ccc(C(CN(C)C)C2(O)CCCCC2)cc1 (stereo not drawn) [Venlafaxine, venlafaxine, reference compound]?
Answer: treatment time after which increases in sucrose intake in stressed animals reached statistical significance vs Week 0 (Wistar rats; stressed animals, i.p. once daily): four weeks; Forced Swim Test: Immobility during 5 min: Week 5 Mean ± SD ([1]; non-stressed, 10 mg/kg p.o.): 181.8 ± 27.6; Sucrose Intake Mean ± SD Week 3 ([1]; non-stressed, 10 mg/kg p.o.): 88.4 ± 9.1; Sucrose Intake Mean ± SD Week 4 ([1]; non-stressed, 10 mg/kg p.o.): 91.5 ± 5.6; Sucrose Intake Mean ± SD Week 5 ([1]; non-stressed, 10 mg/kg p.o.): 87.9 ± 15.0; Locomotor Mean ± SD [1, 10]: 9094.9 ± 1832.7; Rearing Mean ± SD [1, 10]: 48.3 ± 11.2; Sniffing Down Mean ± SD [1, 10]: 27.1 ± 5.2; Sniffing Up Mean ± SD [1, 10]: 43.3 ± 8.9; Locomotor Mean ± SD [1, 11]: 8078.6 ± 1665.2; Rearing Mean ± SD [1, 11]: 40.1 ± 8.9; Sniffing Down Mean ± SD [1, 11]: 27 ± 4.7; Sniffing Up Mean ± SD [1, 11]: 38.6 ± 7.7; Forced Swim Test: Immobility during 5 min: Week 5 Mean ± SD ([1]; stressed, 10 mg/kg p.o.): 190.4 ± 36.8; Sucrose Intake Mean ± SD Week 3 ([1]; stressed, 10 mg/kg p.o.): 74.5 ± 16.7; Sucrose Intake Mean ± SD Week 4 ([1]; stressed, 10 mg/kg p.o.): 76.1 ± 18.2; Sucrose Intake Mean ± SD Week 5 ([1]; stressed, 10 mg/kg p.o.): 73.3 ± 17.6; Locomotor Mean ± SD [1, 12]: 6233.6 ± 1087.2; Rearing Mean ± SD [1, 12]: 30.8 ± 6.6; Sniffing Down Mean ± SD [1, 12]: 14.9 ± 3.5; Sniffing Up Mean ± SD [1, 12]: 28.6 ± 6.5; Locomotor Mean ± SD [1, 13]: 6250.1 ± 789.2; Rearing Mean ± SD [1, 13]: 35.1 ± 7.4; Sniffing Down Mean ± SD [1, 13]: 18.3 ± 3.6; Sniffing Up Mean ± SD [1, 13]: 33.1 ± 7.5
